Experimental data published in ChEMBL document CHEMBL1201862, “PubChem BioAssay data set” (2004).
Active and inactive are the calls of the source.

Key:
[1] = molecular target: Testis-specific serine/threonine-protein kinase 1 (Homo sapiens, UniProt Q9BXA7); assay type: functional
[2] = molecular target: Serine/threonine-protein kinase PAK 4 (Homo sapiens, UniProt O96013); assay type: functional;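 note: value obtained within a kinome profiling panel in which PAK4 was one of the panel members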
[3] = molecular target: Mitogen-activated protein kinase kinase kinase kinase 5 (Homo sapiens, UniProt Q9Y4K4); assay type: functional;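 note: measured as one member of a kinome-spanning kinase panel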
Chain of Mitogen-activated protein kinase kinase kinase kinase 5 (Q9Y4K4 whole entry): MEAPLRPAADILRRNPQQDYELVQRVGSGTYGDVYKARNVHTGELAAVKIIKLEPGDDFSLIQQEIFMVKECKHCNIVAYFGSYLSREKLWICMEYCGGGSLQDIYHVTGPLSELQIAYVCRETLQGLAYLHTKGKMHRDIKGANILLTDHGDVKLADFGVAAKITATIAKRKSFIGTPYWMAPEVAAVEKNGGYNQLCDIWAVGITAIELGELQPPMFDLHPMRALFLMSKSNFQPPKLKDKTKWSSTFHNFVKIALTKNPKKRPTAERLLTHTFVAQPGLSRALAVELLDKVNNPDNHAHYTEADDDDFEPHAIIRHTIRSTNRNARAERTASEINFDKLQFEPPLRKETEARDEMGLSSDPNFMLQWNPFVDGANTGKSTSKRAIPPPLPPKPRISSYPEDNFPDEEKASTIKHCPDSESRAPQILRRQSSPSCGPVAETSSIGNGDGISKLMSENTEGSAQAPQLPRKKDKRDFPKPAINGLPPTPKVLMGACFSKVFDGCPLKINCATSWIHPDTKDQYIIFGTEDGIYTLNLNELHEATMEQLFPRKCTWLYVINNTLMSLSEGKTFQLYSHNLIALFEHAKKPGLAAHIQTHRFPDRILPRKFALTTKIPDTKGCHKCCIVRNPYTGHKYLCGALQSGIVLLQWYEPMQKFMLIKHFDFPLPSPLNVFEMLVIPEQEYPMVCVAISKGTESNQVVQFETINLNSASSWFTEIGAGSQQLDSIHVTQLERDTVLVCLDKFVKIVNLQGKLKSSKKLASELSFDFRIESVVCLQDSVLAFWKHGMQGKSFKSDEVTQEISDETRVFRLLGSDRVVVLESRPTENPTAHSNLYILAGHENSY

[4] = molecular target: 5'-AMP-activated protein kinase catalytic subunit alpha-1 (Homo sapiens, UniProt Q13131); assay type: functional
Chain of 5'-AMP-activated protein kinase catalytic subunit alpha-1 (Q13131 whole entry): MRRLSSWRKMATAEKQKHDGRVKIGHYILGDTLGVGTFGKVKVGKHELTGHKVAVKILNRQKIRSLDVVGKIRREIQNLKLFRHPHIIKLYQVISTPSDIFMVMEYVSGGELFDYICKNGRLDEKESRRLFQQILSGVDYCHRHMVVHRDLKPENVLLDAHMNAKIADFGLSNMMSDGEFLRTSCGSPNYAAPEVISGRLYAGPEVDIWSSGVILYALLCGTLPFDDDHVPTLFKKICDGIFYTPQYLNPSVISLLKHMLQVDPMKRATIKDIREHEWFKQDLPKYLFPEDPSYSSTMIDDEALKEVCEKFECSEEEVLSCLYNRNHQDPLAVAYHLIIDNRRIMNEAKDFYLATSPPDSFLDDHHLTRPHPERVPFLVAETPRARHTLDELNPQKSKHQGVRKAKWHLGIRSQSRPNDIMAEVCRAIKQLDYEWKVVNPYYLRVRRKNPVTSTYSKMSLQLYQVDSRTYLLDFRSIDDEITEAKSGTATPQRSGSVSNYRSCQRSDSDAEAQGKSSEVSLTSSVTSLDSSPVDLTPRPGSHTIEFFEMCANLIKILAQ

[5] = molecular target: Death-associated protein kinase 3 (Homo sapiens, UniProt O43293); assay type: functional;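 note: measured as one member of a kinome-wide profiling panel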
[6] = molecular target: Serine/threonine-protein kinase N2 (Homo sapiens, UniProt Q16513); assay type: functional
Chain of Serine/threonine-protein kinase N2 (Q16513 whole entry): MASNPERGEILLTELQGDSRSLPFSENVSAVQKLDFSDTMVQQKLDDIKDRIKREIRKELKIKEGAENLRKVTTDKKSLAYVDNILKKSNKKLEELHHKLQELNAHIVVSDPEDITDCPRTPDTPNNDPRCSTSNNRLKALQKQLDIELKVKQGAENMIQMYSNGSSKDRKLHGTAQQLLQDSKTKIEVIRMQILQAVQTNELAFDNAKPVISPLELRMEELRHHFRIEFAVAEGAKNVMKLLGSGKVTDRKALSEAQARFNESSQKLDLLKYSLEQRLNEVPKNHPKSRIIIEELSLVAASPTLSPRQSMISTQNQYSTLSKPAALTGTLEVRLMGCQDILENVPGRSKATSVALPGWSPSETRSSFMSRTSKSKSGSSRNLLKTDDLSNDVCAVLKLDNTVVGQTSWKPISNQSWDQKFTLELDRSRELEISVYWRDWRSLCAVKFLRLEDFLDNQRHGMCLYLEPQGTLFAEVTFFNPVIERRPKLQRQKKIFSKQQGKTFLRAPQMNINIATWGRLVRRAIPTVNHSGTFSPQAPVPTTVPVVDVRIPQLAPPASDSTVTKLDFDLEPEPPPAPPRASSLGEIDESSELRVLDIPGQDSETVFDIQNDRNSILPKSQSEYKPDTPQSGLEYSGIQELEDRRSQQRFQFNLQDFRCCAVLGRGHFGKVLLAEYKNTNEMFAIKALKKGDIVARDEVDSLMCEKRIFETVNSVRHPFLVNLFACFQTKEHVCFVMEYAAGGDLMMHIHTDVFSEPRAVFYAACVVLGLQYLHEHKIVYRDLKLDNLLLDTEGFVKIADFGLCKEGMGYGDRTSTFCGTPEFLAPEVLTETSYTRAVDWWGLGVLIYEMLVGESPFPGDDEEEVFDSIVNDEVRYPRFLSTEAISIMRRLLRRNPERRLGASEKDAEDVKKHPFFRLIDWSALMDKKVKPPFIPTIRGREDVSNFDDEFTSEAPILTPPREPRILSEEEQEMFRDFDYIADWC

[7] = molecular target: Protein kinase C gamma type (Homo sapiens, UniProt P05129); assay type: functional
[8] = molecular target: Dual specificity protein kinase CLK4 (Homo sapiens, UniProt Q9HAZ1); assay type: functional
Chain of Dual specificity protein kinase CLK4 (Q9HAZ1 whole entry): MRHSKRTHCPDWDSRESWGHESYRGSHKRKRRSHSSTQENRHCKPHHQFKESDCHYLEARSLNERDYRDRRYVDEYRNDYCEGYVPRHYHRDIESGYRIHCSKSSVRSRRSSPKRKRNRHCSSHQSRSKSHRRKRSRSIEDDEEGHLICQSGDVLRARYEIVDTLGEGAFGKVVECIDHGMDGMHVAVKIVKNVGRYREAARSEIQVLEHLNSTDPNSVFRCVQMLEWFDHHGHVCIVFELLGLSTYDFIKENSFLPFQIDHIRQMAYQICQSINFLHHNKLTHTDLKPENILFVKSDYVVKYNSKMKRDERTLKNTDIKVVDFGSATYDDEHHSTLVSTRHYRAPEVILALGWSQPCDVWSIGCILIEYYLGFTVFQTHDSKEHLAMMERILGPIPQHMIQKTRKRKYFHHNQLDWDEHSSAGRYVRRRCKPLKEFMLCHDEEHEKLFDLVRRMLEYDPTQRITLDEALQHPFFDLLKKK

[9] = molecular target: Serine/threonine-protein kinase MRCK alpha (Homo sapiens, UniProt Q5VT25); assay type: functional
[10] = molecular target: Dual specificity protein phosphatase 6 (Rattus norvegicus, UniProt Q64346); assay: MKP-3 phosphatase inhibitors, primary screen, biochemical, rat enzyme, in vitro (AID 425)
[11] = Shn3 3'UTR reporter inhibitors, dose response, cell-based, Clone20 osteoblasts, firefly luciferase, cherry-picked (AID 624132); assay type: functional;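 note: firefly luciferase luminescence from reporter carrying the Shn3 3'UTR in osteoblasts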
[12] = molecular target: Delta-type opioid receptor (Homo sapiens, UniProt P41143); assay: Counterscreen for agonists of heterodimerization of the mu 1 (OPRM1) and delta 1 (OPRD1) opioid receptors: Luminescence-based cell-based high throughput dose response assay to identify agonists of OPRD1 homodimerization. [Related pubchem assays (depositor defined):AID504326, AID504355, AID504692, AID504904, AID504905]; assay type: functional
Chain of Delta-type opioid receptor (P41143 whole entry): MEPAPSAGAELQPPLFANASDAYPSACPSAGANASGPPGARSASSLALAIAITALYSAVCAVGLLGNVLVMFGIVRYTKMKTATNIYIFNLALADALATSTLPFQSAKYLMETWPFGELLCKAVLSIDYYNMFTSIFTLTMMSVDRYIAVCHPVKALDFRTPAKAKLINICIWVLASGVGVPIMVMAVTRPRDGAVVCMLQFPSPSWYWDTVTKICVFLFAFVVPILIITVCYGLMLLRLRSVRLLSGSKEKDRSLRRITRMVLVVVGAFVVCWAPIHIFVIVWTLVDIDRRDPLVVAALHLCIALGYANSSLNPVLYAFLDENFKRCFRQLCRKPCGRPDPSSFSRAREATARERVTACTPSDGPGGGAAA

Caspase-9 = Caspase-9 (Homo sapiens, UniProt P55211); assay: caspase-9 enzyme inhibition, dose response, selectivity assay for caspase-6 inhibitor project, biochemical, fluorescence, plate reader, cherry-picked samples (AID 743293)
Chain of Caspase-9 (P55211 1-315 limits assumed): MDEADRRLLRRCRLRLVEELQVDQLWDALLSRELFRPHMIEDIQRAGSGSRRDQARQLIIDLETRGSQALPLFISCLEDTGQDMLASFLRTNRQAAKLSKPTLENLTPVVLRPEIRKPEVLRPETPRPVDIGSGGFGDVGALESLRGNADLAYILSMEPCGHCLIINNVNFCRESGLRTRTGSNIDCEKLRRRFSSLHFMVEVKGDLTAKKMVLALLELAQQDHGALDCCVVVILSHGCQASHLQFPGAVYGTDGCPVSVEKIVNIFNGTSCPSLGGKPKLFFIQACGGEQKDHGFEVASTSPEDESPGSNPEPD
Chain of Caspase-9 (P55211 331-416 limits assumed): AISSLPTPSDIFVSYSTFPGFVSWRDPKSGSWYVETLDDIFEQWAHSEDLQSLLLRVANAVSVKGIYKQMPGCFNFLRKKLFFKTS

[13] = molecular target: Ras and Rab interactor 1/Tyrosine-protein kinase ABL1 (Homo sapiens, UniProt P00519+Q13671); assay type: functional;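 note: biochemical TR-FRET dose-response test measuring inhibition of binding between Rin1 and Abl proteins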

Chain of Testis-specific serine/threonine-protein kinase 1 (Q9BXA7 whole entry): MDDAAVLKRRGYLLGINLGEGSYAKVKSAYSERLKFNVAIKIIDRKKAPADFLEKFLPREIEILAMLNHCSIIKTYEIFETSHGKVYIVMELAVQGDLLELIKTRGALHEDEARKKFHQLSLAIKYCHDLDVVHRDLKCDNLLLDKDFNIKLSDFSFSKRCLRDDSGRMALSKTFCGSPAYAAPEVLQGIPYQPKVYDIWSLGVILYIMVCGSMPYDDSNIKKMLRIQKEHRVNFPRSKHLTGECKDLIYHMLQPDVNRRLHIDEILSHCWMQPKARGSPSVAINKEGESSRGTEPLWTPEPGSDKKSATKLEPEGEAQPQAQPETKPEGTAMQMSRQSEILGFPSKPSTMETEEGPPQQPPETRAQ

## COc1cc2ncn(-c3cc(OCc4ccccc4C(F)(F)F)c(C(N)=O)s3)c2cc1OC [GW843682X]
[1]
  Ki: 0.2 µM (active)
[2]
  Ki: > 5.01 µM (inactive)
[3]
  Ki: 0.2 µM (active)
[4]
  Ki: > 5.01 µM (inactive)
[5]
  Ki: > 1.26 µM (inactive)
[6]
  Ki: > 7.94 µM (inactive)
[7]
  Ki: > 7.94 µM (inactive)
[8]
  Ki: 0.398 µM (active)
[9]
  Ki: > 10 µM (inactive)

## CCCc1nc2c(=O)n(C)c(=O)nc-2n(C)n1
[10]
  IC50: < 1.23 µM (not active)
[11]
  AC50: 2.17 µM (active)
[12]
  EC50: > 92.5 µM (inactive)
Caspase-9
  AC50: 0.214 µM (active)
[13]
  IC50: 0.527 µM (active)
